{"source": "patent US20040224076A1", "about": "“Dietetic composition in the form of a salt substitute for table salt” (priority 1998, published 2004)", "origin": "cited, not measured here", "details": "oral supplementation, meta-analysis of 33 studies", "data": [{"smiles": "[K+]", "note": "[potassium]", "values": [{"measurement": "reduction for diastolic pressure", "value": 1.97, "unit": "mm Hg"}, {"measurement": "reduction for systolic pressure", "value": 3.11, "unit": "mm Hg"}]}]}
